Experimental data as given in patent US20230287510A1, “COMPOSITIONS, PANELS, AND METHODS FOR CHARACTERIZING CHRONIC LYMPHOCYTIC LEUKEMIA” (The Broad Institute, Inc., priority 2020, published 2023).
*1 amine or outer side, *2 acyl side, *3 side chain or, on linkers, in order; H or OH if unused. Where a SMILES comes first, the peptide text is derived from it. Bridges are numbered along the chain shown (N, C = ends). Roman numbers before positions name the chains, in order. [ ]: non-standard residue; d: D form. Actinocin(9to1) = Cc1c2oc3c(C)ccc(C(=O)[*:1])c3nc-2c(C(=O)[*:2])c(N)c1=O; NMeV = CN[C@H](C(=O)O)C(C)C; Sar = CNCC(=O)O

System: chronic lymphocytic leukemia (CLL) samples classified by expression subtype (Ec-i, EC-m1, EC-m2, EC-m3, EC-m4, EC-o, EC-u1, EC-u2)
Test: Ex-vivo drug sensitivity (percent viability) of CLL samples compared between expression subtypes (ECs); for Mean viability in the EC: test concentration or dose not given here; for Mean viability in the other ECs: test concentration or dose not given here
Format: cell-based
Description: An analysis was completed to determine whether the expression clusters (ECs) can be used to predict the resistance and sensitivity of different chronic lymphocytic leukemias to various drugs. […] The expression subtypes were then used with the drug sensitivity data to compare the percent […] of samples in each expression cluster to the percent viability of samples in all other expression clusters.

CC(C)c1cc(C(=O)N2Cc3ccc(CN4CCN(C)CC4)cc3C2)c(O)cc1O [AT13387]
Mean viability in the other ECs (all ECs other than EC-m1): 0.72
Mean viability in the other ECs (all ECs other than EC-m3): 0.72
Mean viability in the other ECs (all ECs other than EC-m4): 0.70
Mean viability in the other ECs (all ECs other than EC-u1): 0.75
Mean viability in the other ECs (all ECs other than EC-u2): 0.74
Drug response associated with the EC (expression cluster EC-m1): Resistant
Mean viability in the EC (expression cluster EC-m1): 0.82
Drug response associated with the EC (expression cluster EC-m3): Resistant
Mean viability in the EC (expression cluster EC-m3): 0.81
Drug response associated with the EC (expression cluster EC-m4): Resistant
Mean viability in the EC (expression cluster EC-m4): 0.81
Drug response associated with the EC (expression cluster EC-u1): Sensitive
Mean viability in the EC (expression cluster EC-u1): 0.68
Drug response associated with the EC (expression cluster EC-u2): Sensitive
Mean viability in the EC (expression cluster EC-u2): 0.50

NC(=O)Nc1cc(-c2cccc(F)c2)sc1C(=O)N[C@H]1CCCNC1 [AZD7762]
Mean viability in the other ECs (all ECs other than EC-m3): 0.82
Mean viability in the other ECs (all ECs other than EC-m4): 0.80
Mean viability in the other ECs (all ECs other than EC-u1): 0.88
Mean viability in the other ECs (all ECs other than EC-u2): 0.85
Drug response associated with the EC (expression cluster EC-m3): Resistant
Mean viability in the EC (expression cluster EC-m3): 0.95
Drug response associated with the EC (expression cluster EC-m4): Resistant
Mean viability in the EC (expression cluster EC-m4): 0.98
Drug response associated with the EC (expression cluster EC-u1): Sensitive
Mean viability in the EC (expression cluster EC-u1): 0.74
Drug response associated with the EC (expression cluster EC-u2): Sensitive
Mean viability in the EC (expression cluster EC-u2): 0.51

CC(C)(C)c1ccc(S(=O)(=O)/C=C/C#N)cc1 [BAY 11-7085]
Drug response associated with the EC (expression cluster EC-i): Resistant
Drug response associated with the EC (expression cluster EC-u1): Sensitive

O=C(Nc1cccc(Nc2ncc(Br)c(NCCc3cnc[nH]3)n2)c1)N1CCCC1 [BX912]
Mean viability in the other ECs (all ECs other than EC-u1): 1.07
Drug response associated with the EC (expression cluster EC-u1): Sensitive
Mean viability in the EC (expression cluster EC-u1): 1.05

COc1cc2nc(-c3cc(F)ccc3O)nc(N[C@@H]3CNC[C@H]3C(C)(C)O)c2cc1OC [CCT241533]
Mean viability in the other ECs (all ECs other than EC-m1): 1.06
Mean viability in the other ECs (all ECs other than EC-m3): 1.06
Drug response associated with the EC (expression cluster EC-m1): Resistant
Mean viability in the EC (expression cluster EC-m1): 1.11
Drug response associated with the EC (expression cluster EC-m3): Resistant
Mean viability in the EC (expression cluster EC-m3): 1.09

C[C@@H]1CN(CC(=O)Nc2ccc3c(c2)Cc2cccc(-c4cc(=O)cc(N5CCOCC5)o4)c2S3)C[C@H](C)O1 [KU-60019]
Mean viability in the other ECs (all ECs other than EC-m3): 0.97
Mean viability in the other ECs (all ECs other than EC-u2): 0.97
Drug response associated with the EC (expression cluster EC-m3): Resistant
Mean viability in the EC (expression cluster EC-m3): 1.00
Drug response associated with the EC (expression cluster EC-u2): Sensitive
Mean viability in the EC (expression cluster EC-u2): 0.90

O=C(Cc1ccc(-c2ccc(OCCN3CCOCC3)cc2)cn1)NCc1ccccc1 [KX2-391]
Mean viability in the other ECs (all ECs other than EC-u1): 0.91
Drug response associated with the EC (expression cluster EC-u1): Sensitive
Mean viability in the EC (expression cluster EC-u1): 0.86

C=CCn1c(=O)c2cnc(Nc3ccc(N4CCN(C)CC4)cc3)nc2n1-c1cccc(C(C)(C)O)n1 [MK-1775]
Mean viability in the other ECs (all ECs other than EC-m3): 1.00
Mean viability in the other ECs (all ECs other than EC-u1): 1.02
Drug response associated with the EC (expression cluster EC-m3): Resistant
Mean viability in the EC (expression cluster EC-m3): 1.04
Drug response associated with the EC (expression cluster EC-u1): Sensitive
Mean viability in the EC (expression cluster EC-u1): 0.98

NC1(c2ccc(-c3nc4ccn5c(=O)[nH]nc5c4cc3-c3ccccc3)cc2)CCC1 [MK-2206]
Mean viability in the other ECs (all ECs other than EC-m1): 1.00
Mean viability in the other ECs (all ECs other than EC-m4): 1.00
Mean viability in the other ECs (all ECs other than EC-u1): 1.02
Drug response associated with the EC (expression cluster EC-m1): Resistant
Mean viability in the EC (expression cluster EC-m1): 1.07
Drug response associated with the EC (expression cluster EC-m4): Resistant
Mean viability in the EC (expression cluster EC-m4): 1.04
Drug response associated with the EC (expression cluster EC-u1): Sensitive
Mean viability in the EC (expression cluster EC-u1): 0.98

O=c1cc(N2CCOCC2)oc2c(-c3cccc4c3sc3ccccc34)cccc12 [NU7441]
Drug response associated with the EC (expression cluster EC-m4): Resistant
Drug response associated with the EC (expression cluster EC-u2): Sensitive

Cn1cc(-c2[nH]c3cc(NC(=O)[C@H](N)C4CCCCC4)cc4c3c2C=NNC4=O)cn1 [PF 477736]
Drug response associated with the EC (expression cluster EC-m1): Resistant
Drug response associated with the EC (expression cluster EC-m3): Resistant
Drug response associated with the EC (expression cluster EC-m4): Resistant
Drug response associated with the EC (expression cluster EC-u1): Sensitive

Cl.NC(=O)c1cnc(N[C@@H]2CCCC[C@@H]2N)nc1Nc1cccc(-n2nccn2)c1 [PRT062607 HCl]
Drug response associated with the EC (expression cluster EC-i): Resistant
Drug response associated with the EC (expression cluster EC-m3): Resistant
Drug response associated with the EC (expression cluster EC-m4): Resistant
Drug response associated with the EC (expression cluster EC-u1): Sensitive
Drug response associated with the EC (expression cluster EC-u2): Sensitive

CN1CCC(CNc2ccc3ncc(-c4cccc(OC(F)(F)F)c4)n3n2)CC1 [SGI-1776]
Mean viability in the other ECs (all ECs other than EC-m1): 1.03
Mean viability in the other ECs (all ECs other than EC-u1): 1.04
Drug response associated with the EC (expression cluster EC-m1): Resistant
Mean viability in the EC (expression cluster EC-m1): 1.09
Drug response associated with the EC (expression cluster EC-u1): Sensitive
Mean viability in the EC (expression cluster EC-u1): 1.01

CC(C)(C)c1cnc(CSc2cnc(NC(=O)C3CCNCC3)s2)o1 [SNS-032]
Mean viability in the other ECs (all ECs other than EC-m4): 0.73
Drug response associated with the EC (expression cluster EC-m4): Sensitive
Mean viability in the EC (expression cluster EC-m4): 0.66

COc1cc(N2CCC(N3CCN(C)CC3)CC2)ccc1Nc1ncc(Cl)c(Nc2ccccc2S(=O)(=O)C(C)C)n1 [TAE684]
Mean viability in the other ECs (all ECs other than EC-m1): 1.01
Mean viability in the other ECs (all ECs other than EC-m4): 1.01
Mean viability in the other ECs (all ECs other than EC-u1): 1.03
Drug response associated with the EC (expression cluster EC-m1): Resistant
Mean viability in the EC (expression cluster EC-m1): 1.07
Drug response associated with the EC (expression cluster EC-m4): Resistant
Mean viability in the EC (expression cluster EC-m4): 1.04
Drug response associated with the EC (expression cluster EC-u1): Sensitive
Mean viability in the EC (expression cluster EC-u1): 0.98

COCCn1c2c([n+](Cc3cnccn3)c1C)C(=O)c1ccccc1C2=O [YM155]
Mean viability in the other ECs (all ECs other than EC-u1): 0.64
Drug response associated with the EC (expression cluster EC-u1): Sensitive
Mean viability in the EC (expression cluster EC-u1): 0.53

Cc1c2oc3c(C)ccc(C(=O)N[C@@H]4C(=O)N[C@H](C(C)C)C(=O)N5CCC[C@H]5C(=O)N(C)CC(=O)N(C)[C@@H](C(C)C)C(=O)O[C@@H]4C)c3nc-2c(C(=O)N[C@@H]2C(=O)N[C@H](C(C)C)C(=O)N3CCC[C@H]3C(=O)N(C)CC(=O)N(C)[C@@H](C(C)C)C(=O)O[C@@H]2C)c(N)c1=O [actinomycin D] (I: T[dV]P[Sar][NMeV] / II: T[dV]P[Sar][NMeV]; ester I:1-I:C, II:1-II:C; linker I:N-II:N via Actinocin(9to1))
Mean viability in the other ECs (all ECs other than EC-u1): 0.27
Drug response associated with the EC (expression cluster EC-u1): Resistant
Mean viability in the EC (expression cluster EC-u1): 0.37

CN(C)C/C=C/C(=O)Nc1cc2c(Nc3ccc(F)c(Cl)c3)ncnc2cc1O[C@H]1CCOC1 [afatinib]
Mean viability in the other ECs (all ECs other than EC-m3): 1.08
Mean viability in the other ECs (all ECs other than EC-m4): 1.09
Mean viability in the EC (expression cluster EC-m3): 1.03
Mean viability in the EC (expression cluster EC-m4): 1.02

CC[C@H]1CN2CCc3cc(OC)c(OC)cc3[C@@H]2C[C@@H]1C[C@H]1NCCc2cc(O)c(OC)cc21 [cephaeline]
Mean viability in the other ECs (all ECs other than EC-u2): 0.82
Mean viability in the EC (expression cluster EC-u2): 0.72

C/C1=C\[C@@H](C)C/C=C/[C@H]2[C@@H]3O[C@]3(C)[C@@H](C)[C@H]3[C@H](Cc4c[nH]c5ccccc45)NC(=O)[C@]32C(=O)/C=C/C(=O)[C@@H]1O [chaetoglobosin A]
Mean viability in the other ECs (all ECs other than EC-m3): 1.07
Drug response associated with the EC (expression cluster EC-m3): Sensitive
Mean viability in the EC (expression cluster EC-m3): 0.98

C[C@H](Nc1ncnc2[nH]cnc12)c1cc2cccc(Cl)c2c(=O)n1-c1ccccc1 [duvelisib]
Mean viability in the other ECs (all ECs other than EC-m3): 0.88
Mean viability in the other ECs (all ECs other than EC-m4): 0.87
Mean viability in the other ECs (all ECs other than EC-u1): 0.90
Mean viability in the other ECs (all ECs other than EC-u2): 0.89
Drug response associated with the EC (expression cluster EC-m3): Resistant
Mean viability in the EC (expression cluster EC-m3): 0.95
Drug response associated with the EC (expression cluster EC-m4): Resistant
Mean viability in the EC (expression cluster EC-m4): 0.94
Drug response associated with the EC (expression cluster EC-u1): Sensitive
Mean viability in the EC (expression cluster EC-u1): 0.85
Drug response associated with the EC (expression cluster EC-u2): Sensitive
Mean viability in the EC (expression cluster EC-u2): 0.73

CO[C@H]1C[C@@H]2CC[C@@H](C)[C@@](O)(O2)C(=O)C(=O)N2CCCC[C@H]2C(=O)O[C@H]([C@H](C)C[C@@H]2CC[C@@H](OCCO)[C@H](OC)C2)CC(=O)[C@H](C)/C=C(\C)[C@@H](O)[C@@H](OC)C(=O)[C@H](C)C[C@H](C)/C=C/C=C/C=C/1C [everolimus]
Mean viability in the other ECs (all ECs other than EC-u1): 0.95
Drug response associated with the EC (expression cluster EC-u1): Resistant
Mean viability in the EC (expression cluster EC-u1): 0.99

CC[C@H](Nc1ncnc2nc[nH]c12)c1nc2cccc(F)c2c(=O)n1-c1ccccc1 [idelalisib]
Mean viability in the other ECs (all ECs other than EC-m3): 0.93
Mean viability in the other ECs (all ECs other than EC-m4): 0.93
Mean viability in the other ECs (all ECs other than EC-u1): 0.96
Mean viability in the other ECs (all ECs other than EC-u2): 0.95
Drug response associated with the EC (expression cluster EC-m3): Resistant
Mean viability in the EC (expression cluster EC-m3): 1.02
Drug response associated with the EC (expression cluster EC-m4): Resistant
Mean viability in the EC (expression cluster EC-m4): 0.99
Drug response associated with the EC (expression cluster EC-u1): Sensitive
Mean viability in the EC (expression cluster EC-u1): 0.90
Drug response associated with the EC (expression cluster EC-u2): Sensitive
Mean viability in the EC (expression cluster EC-u2): 0.79

CC1(C)CCC(c2ccc(Cl)cc2)=C(CN2CCN(c3ccc(C(=O)NS(=O)(=O)c4ccc(N[C@H](CCN5CCOCC5)CSc5ccccc5)c(S(=O)(=O)C(F)(F)F)c4)cc3)CC2)C1 [navitoclax]
Mean viability in the other ECs (all ECs other than EC-u1): 0.82
Drug response associated with the EC (expression cluster EC-u1): Resistant
Mean viability in the EC (expression cluster EC-u1): 0.89

C=C(C)[C@H]1Cc2c(ccc3c2O[C@@H]2COc4cc(OC)c(OC)cc4[C@@H]2C3=O)O1 [rotenone]
Mean viability in the other ECs (all ECs other than EC-i): 0.77
Mean viability in the other ECs (all ECs other than EC-m4): 0.77
Mean viability in the other ECs (all ECs other than EC-u2): 0.74
Drug response associated with the EC (expression cluster EC-i): Sensitive
Mean viability in the EC (expression cluster EC-i): 0.63
Drug response associated with the EC (expression cluster EC-m4): Sensitive
Mean viability in the EC (expression cluster EC-m4): 0.67
Drug response associated with the EC (expression cluster EC-u2): Resistant
Mean viability in the EC (expression cluster EC-u2): 0.92

CN1CCN(CCOc2cc(OC3CCOCC3)c3c(Nc4c(Cl)ccc5c4OCO5)ncnc3c2)CC1 [saracatinib]
Mean viability in the other ECs (all ECs other than EC-i): 1.07
Mean viability in the EC (expression cluster EC-i): 1.13
